Source: PubChem BioAssay (NCI)
Several values for one entry are separate records, joined by “and”; a condition that tells them apart may be missing. Identical values can stand only once.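 Cultured in 96-well plates, cells were exposed to test compound for 48 hours across five concentrations. GI50 marks 50% less growth. At the TGI there is no net growth.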

Experiments:
Test in all cases: NCI tumour cell line growth inhibition, 48 h
UACC-257 melanoma = system: UACC-257 melanoma
NCI-H522 lung = system: NCI-H522 lung
SR leukemia = system: SR leukemia
SK-MEL-2 melanoma = system: SK-MEL-2 melanoma
OVCAR-4 ovarian = system: OVCAR-4 ovarian
RXF 393 renal = system: RXF 393 renal
UO-31 renal = system: UO-31 renal
KM12 colon = system: KM12 colon
OVCAR-3 ovarian = system: OVCAR-3 ovarian
IGROV1 ovarian = system: IGROV1 ovarian

Row | Compound | GI50 (UACC-257 melanoma) | TGI (UACC-257 melanoma) | GI50 (NCI-H522 lung) | TGI (NCI-H522 lung) | GI50 (SR leukemia) [µM] | TGI (SR leukemia) [µM] | GI50 (SK-MEL-2 melanoma) [µM] | TGI (SK-MEL-2 melanoma) | GI50 (OVCAR-4 ovarian) | TGI (OVCAR-4 ovarian) | GI50 (RXF 393 renal) | TGI (RXF 393 renal) | GI50 (UO-31 renal) | TGI (UO-31 renal) | GI50 (KM12 colon) | TGI (KM12 colon) | GI50 (OVCAR-3 ovarian) | TGI (OVCAR-3 ovarian) | GI50 (IGROV1 ovarian) | TGI (IGROV1 ovarian)
1 | NC1(Cc2ccc(Cl)cc2)CCN(c2ncnc3[nH]ccc23)CC1 | 13.1 µM | 26.5 µM | 12.6 µM | 27.7 µM | 4.2 | 31.4 | 14.6 | 31 µM | 17.6 µM | 60.5 µM | 1.41 µM | 7.12 µM | 1.54 µM | 13 µM | 3.02 µM | 13.9 µM | 11.7 µM | 25 µM | 1.01 µM | 7.8 µM
2 | COc1ccc2c(c1)-c1nn(CCCN(C)C)c3ccc([N+](=O)[O-])c(c13)N2 | 0.455 µM and 1.1 µM | 3.26 µM and 10.9 µM | 0.117 µM and 0.385 µM | 1.03 µM and 2.26 µM | 1.27 | – | – | 4.28 µM and 4.55 µM | 0.234 µM and 0.649 µM | 1.18 µM and 2 µM | 0.274 µM and 0.135 µM | 1.33 µM and 2.05 µM | 0.165 µM and 0.435 µM | 1.9 µM and 6.16 µM | 0.194 µM and 0.43 µM | 2.54 µM and 2.58 µM | 0.339 µM and 1.11 µM | 3.95 µM and 7.29 µM | 0.215 µM and 0.507 µM | 3.48 µM and 6.59 µM
3 | COC(=O)C(C(=O)OC)C(Br)C(Br)C(Br)c1ccccc1 (configuration not stated) | 2.34 µM | 11 µM | 1.69 µM | 3.33 µM | 2.47 | 6.39 | 5.92 | 19.2 µM | 4.33 µM | 17.8 µM | 4.17 µM | 15.9 µM | 1.74 µM | 3.42 µM | 17 µM | 32.4 µM | 2.98 µM | 7.63 µM | 4.92 µM | 27 µM
4 | O=C1c2cccnc2C(=O)c2c1c(C(=O)OCCCN1CCCCC1)c1ccccn21 | < 0.01 µM | 0.0549 µM | < 0.01 µM | < 0.0156 µM | < 0.01 | > 100 | 0.0303 | 0.0808 µM | 0.28 µM | 2 µM | < 0.0108 µM | < 0.019 µM | < 0.01 µM | < 0.01 µM | < 0.0185 µM | 0.165 µM | < 0.0218 µM | 0.156 µM | 0.0309 µM | 0.686 µM
5 | COc1ccc(CCN2CCC(CN(C)Cc3cnn(-c4ccccc4)c3)CC2)cc1 | 2.59 µM | 7.12 µM | 4.54 µM | 19 µM | 3.92 | 25.2 | 17.3 | 32.8 µM | 7.75 µM | 57.5 µM | 7.74 µM | 24.1 µM | 3.37 µM | 16.2 µM | 15.4 µM | 30.8 µM | 20.4 µM | 52.4 µM | 25.6 µM | > 100 µM
6 | O=C1N(Cc2ccccc2Cl)c2ccccc2C12NN=C(c1cccc(Cl)c1)S2 (configuration not stated) | 1.7 µM | 3.27 µM | 1.72 µM | 3.48 µM | 2.14 | 5.67 | 1.77 | 3.38 µM | 1.95 µM | 4.05 µM | 1.76 µM | 3.4 µM | 1.69 µM | 3.26 µM | 1.82 µM | 3.79 µM | 1.83 µM | 3.43 µM | 1.78 µM | 3.75 µM
7 | Cc1ccc(C2NC(=O)c3ccccc3N2)c(C)c1 (configuration not stated) | – | > 100 µM | – | 4.91 µM | – | > 71.8 | – | 37.8 µM | – | > 59.7 µM | – | > 76.2 µM | – | > 100 µM | – | > 100 µM | – | 4.68 µM | – | > 100 µM
8 | CCCCCCNCc1cc(C(C)(C)C)cc(CNCCCCCC)c1O | 1.67 µM | 3.13 µM | 1.65 µM | 3.13 µM | 1.73 | 3.86 | 1.98 | 3.52 µM | 1.85 µM | 3.47 µM | 1.62 µM | 2.99 µM | 1.37 µM | 2.8 µM | 1.82 µM | 3.3 µM | 1.73 µM | 3.15 µM | 1.76 µM | 3.36 µM
9 | CN1CCN(c2nc(-c3csc(-c4cccs4)n3)cc3ccccc23)CC1 | 1.87 µM | 3.68 µM | 1.94 µM | 3.95 µM | 3.1 | – | 1.47 | 3.48 µM | 2.18 µM | 4.73 µM | 1.78 µM | 3.9 µM | 1.66 µM | 3.17 µM | 1.84 µM | 3.39 µM | 1.84 µM | 3.64 µM | 1.57 µM | 3.12 µM
10 | CC(C)(C)OC(=O)NCc1cccc(N=C=S)c1 | 21.7 µM | 54.4 µM | 17.4 µM | 44.1 µM | 20 | > 81.9 | 21.3 | 45.7 µM | 16.7 µM | 51.8 µM | 16.8 µM | 36.1 µM | 15.4 µM | 38.8 µM | 16.5 µM | 32.8 µM | 16.4 µM | 31.2 µM | 19.3 µM | 41.8 µM
11 | Cc1c2c(c(C)c3c1[nH]c1ccccc13)CN(C)CC2 | – | 31.4 µM | – | 31.3 µM | – | 87.8 | – | 31.1 µM | – | > 100 µM | – | 34.6 µM | – | 53 µM | – | 33.9 µM | – | 52.7 µM | – | > 100 µM
12 | CC1(C)O[C@@H]2C[C@H]3[C@@H]4C[C@H](F)C5=CC(=O)C=C[C@]5(C)[C@@]4(F)[C@@H](O)C[C@]3(C)[C@]2(C(=O)CO)O1 | – | > 100 µM | – | > 100 µM | – | > 100 | – | > 100 µM | – | > 100 µM | – | > 100 µM | – | > 100 µM | – | > 100 µM | – | > 100 µM | – | > 100 µM
13 | NC(=O)c1sc(-n2cnc3cc(C(F)(F)F)ccc32)cc1OCc1ccccc1Br | > 25 µM | > 25 µM | > 20 µM | > 25 µM | > 21.2 | > 25 | > 25 | > 25 µM | 9.02 µM | > 25 µM | > 12.9 µM | > 25 µM | > 25 µM | > 25 µM | > 19.9 µM | > 25 µM | > 16.7 µM | > 25 µM | > 25 µM | > 25 µM
14 | C/C(=N\NC(=S)N1CCCCCC1)c1cccc2cccnc12 | – | > 31.1 µM | – | > 100 µM | – | 14.5 | – | > 100 µM | – | > 21.4 µM | – | > 100 µM | – | > 44.2 µM | – | > 87.4 µM | – | 0.567 µM | – | > 94.1 µM
